Experimental data: US20170100489A1, “POLYETHYLENE GLYCOL-MODIFIED INTEGRIN BLOCKER HM-3 AND USE THEREOF” (HANMEI XU, priority 2012, published 2017)
Like-named read-outs stand apart in the source and are kept apart here. Marks after values point to notes of the source that are not given here. Where no end group is shown, it is not given here. mPEG‑SC20k = methoxy polyethylene glycol-succinimidyl-carbonate, 20000 Da

What was measured:
[1] = biological target: T1, integrin ανβ3 (Homo sapiens, UniProt P05106+P06756); assay: Combination with targets through flow cytometry (FITC labeled polypeptide, function-blocking antibody); type: binding; details: Bel-7402 and MCF-7 cells, 2 mg/ml, FIG. 1
T1 construct: Bel-7402 tumor cells and MCF-7 fusion cultured to 80%; endogenous in cells; host or cells: Bel-7402 and MCF-7 tumor cells
Procedure: (§1) • (1) Bel-7402 tumor cells and MCF-7 fusion cultured to 80% after the 24-well plate, trypsinized collected, washed with ice-cold PBS twice, the cells were labeled prior containing 1% BSA resuspended in PBS 30 min. • (2) 2 μl mouse anti-human ανβ3 function-blocking monoclonal antibody (1.0 μg/μl, 1:200), mouse anti-human 2 μl α5β1 function-blocking monoclonal antibody (1.0 μg/μl, 1:200) and the cell suspension were incubated at 4° C. 1.5 h. • (3) collected the labeled cells and washed with ice-cold PBS twice, followed by 100 μl FITC labeled polypeptide modified mPEG-SC20k-HM-3 (2 mg/ml) and the cell suspension were incubated at 4° C. incubate 1.5 h • (4) After labeled, the cells were collected and washed with ice-cold PBS 2 times, followed by resuspension with 400 μl PBS and analyzed by flow cytometry, and detected intensity of the FITC fluorescence through channel FL1.

[2] = biological target: T2, integrin α5β1 (Homo sapiens, UniProt P05556+P08648); assay: as above; type: binding; details: Bel-7402 and MCF-7 cells, 2 mg/ml, FIG. 1
T2 construct: Bel-7402 tumor cells and MCF-7 fusion cultured to 80%; endogenous in cells; host or cells: Bel-7402 and MCF-7 tumor cells
Procedure: as §1

[3] = system: human prostate cancer DU-145 xenograft tumors; assay: Tumor growth inhibition, DU-145 xenograft; details: for Rate of inhibiting tumors / Tumor weight: Once 3 days
Procedure: Human prostate cancer DU-145 cell lines in logarithmic growth phase were picked, and made into 5×10^7/ml cell suspension of under sterile conditions, and then 0.1 ml suspension was inoculated subcutaneously at the right armpit of nude mice. Tumor diameter was measured with a vernier caliper. The animals which had tumors with a size of 100-200 mm^3 were randomly divided into groups. The effect of polypeptide on anti-tumor was dynamically observed through the method of measuring tumor diameter. The times of measuring tumor diameter were once 2 days, and meantime, weighed mice. The mice in experimental group were infused polypeptide through tail vein. The mice in the placebo group were injected saline with the same volume, once 1 day; Cisplatin group: 10 mg/kg, once 1 week; Endostar group: 2.5 mg/kg, once 1 day; The groups of high, intermediate and low polypeptide: 6, 3, 1.5 mg/kg, respectively, once 1 day. After administration, all mice were sacrificed. Stripped the tumors and weighed.

[4] = system: human kidney cancer A498 xenograft tumors; assay: Tumor growth inhibition, A498 xenograft; details: for Rate of inhibiting tumors / Tumor weight: Once 3 days
Procedure: Human kidney cancer A498 cell lines in logarithmic growth phase were picked and made into 5×10^7/ml cell suspension of under sterile conditions, and then 0.1 ml suspension was inoculated subcutaneously at the right armpit of nude mice. Tumor diameter was measured with a vernier caliper. The animals which had tumors with a size of 100-200 mm^3 were randomly divided into groups. The effect of polypeptide on anti-tumor was dynamically observed through the method of measuring tumor diameter. The times of measuring tumor diameter were once 2 days, and meantime, weighed mice. The mice in experimental group were infused polypeptide through tail vein. The mice in the placebo group were injected saline with the same volume, once 1 day; Taxol group: 10 mg/kg, once 1 week; Endostar group: 2.5 mg/kg, once 1 day; The groups of high, intermediate and low polypeptide: 6, 3, 1.5 mg/kg, respectively, once 1 day. After administration, all mice were sacrificed. Stripped the tumors and weighed.

[5] = system: human cervical cancer HeLa xenograft tumors; assay: Tumor growth inhibition, HeLa xenograft; details: for Rate of inhibiting tumors / Tumor weight: Once 3 days
Procedure: Human cervical cancer HeLa cell lines in logarithmic growth phase were picked, and made into 5×10^7/ml cell suspension of under sterile conditions, and then 0.1 ml suspension was inoculated subcutaneously at the right armpit of nude mice. Tumor diameter was measured with a vernier caliper. The animals which had tumors with a size of 100-200 mm^3 were randomly divided into groups. The effect of polypeptide on anti-tumor was dynamically observed through the method of measuring tumor diameter. The times of measuring tumor diameter were once 2 days, and meantime, weighed mice. The mice in experimental group were infused polypeptide through tail vein. The mice in the placebo group were injected saline with the same volume, once 1 day; Taxol group: 10 mg/kg, once 1 week; Endostar group: 2.5 mg/kg, once 1 day; The groups of high, intermediate and low polypeptide: 6, 3, 1.5 mg/kg, respectively, once 1 day. After administration, all mice were sacrificed. Stripped the tumors and weighed.

[6] = system: human pancreatic cancer SW-1990 xenograft tumors; assay: Tumor growth inhibition, SW-1990 xenograft; details: for Rate of inhibiting tumors / Tumor weight: Once 3 days
Procedure: Picked the tumor tissue of vigorous growth and was cut into pieces of about 1.5 mm^3. Under sterile conditions, the tumor tissue was inoculated subcutaneously on the right of nude mice. Tumor diameter was measured with a Vernier caliper. The animals which had tumors with a size of 100-200 mm^3 were randomly divided into groups. The effect of polypeptide on anti-tumor was dynamically observed through the method of measuring tumor diameter. The times of measuring tumor diameter were once 2 days, and meantime, weighed mice. The mice in experimental group were infused polypeptide through tail vein, once 3 days. The mice in the placebo group were injected saline with the same volume.
(§2) a, b respectively represent the length and width. According to the result of measurement, calculate the relative tumor volume. Evaluation of antitumor activity is relative tumor proliferation rate T/C(%). The formula is as follows: T/C(%)^=TRTV/CRTV×100%
TRTV:Treatment group RTV; CRTV: negative control group RTV

[7] = system: human ovarian cancer SK-OV-3 xenograft tumors; assay: Tumor growth inhibition, SK-OV-3 xenograft; details: for Rate of inhibiting tumors / Tumor weight: Once 3 days
Procedure: Human ovarian cancer SK-OV-3 cell lines in logarithmic growth phase were picked, and made into 5×10^7/ml cell suspension of under sterile conditions, and then 0.1 ml suspension was inoculated subcutaneously at the right armpit of nude mice. Tumor diameter was measured with a vernier caliper. The animals which had tumors with a size of 100-200 mm^3 were randomly divided into groups. The effect of polypeptide on anti-tumor was dynamically observed through the method of measuring tumor diameter. The times of measuring tumor diameter were once 2 days, and meantime, weighed mice. The mice in experimental group were infused polypeptide through tail vein. The mice in the placebo group were injected saline with the same volume, once 1 day; Cisplatin group: 10 mg/kg, once 1 week; Endostar group: 2.5 mg/kg, once 1 day; The groups of high, intermediate and low polypeptide: 6, 3, 1.5 mg/kg, respectively, once 1 day. After administration, all mice were sacrificed. Stripped the tumors and weighed.

[8] = system: human bladder cancer HT1376 xenograft tumors; assay: Tumor growth inhibition, HT1376 xenograft; details: for Rate of inhibiting tumors / Tumor weight: Once 3 days
Procedure: Human bladder cancer HT1376 cell lines in logarithmic growth phase were picked, and made into 5×10^7/ml cell suspension of under sterile conditions, and then 0.1 ml suspension was inoculated subcutaneously at the right armpit of nude mice. Tumor diameter was measured with a vernier caliper. The animals which had tumors with a size of 100-200 mm^3 were randomly divided into groups. The effect of polypeptide on anti-tumor was dynamically observed through the method of measuring tumor diameter. The times of measuring tumor diameter were once 2 days, and meantime, weighed mice. The mice in experimental group were infused polypeptide through tail vein. The mice in the placebo group were injected saline with the same volume, once 1 day; Taxol group: 10 mg/kg, once 1 week; Endostar group: 2.5 mg/kg, once 1 day; The groups of high, intermediate and low polypeptide: 6, 3, 1.5 mg/kg, respectively, once 1 day. After administration, all mice were sacrificed. Stripped the tumors and weighed.

[9] = system: human breast cancer MDA-MB-231 xenograft tumors; assay: Tumor growth inhibition, MDA-MB-231 xenograft; details: for Rate of inhibiting tumors / Tumor weight: Once 3 days
Procedure: Picked the tumor tissue of vigorous growth and was cut into pieces of about 1.5 mm^3. Under sterile conditions, the tumor tissue was inoculated subcutaneously on the right of nude mice. Tumor diameter was measured with a vernier caliper. The animals which had tumors with a size of 100-200 mm^3 were randomly divided into groups. The effect of polypeptide on anti-tumor was dynamically observed through the method of measuring tumor diameter. The times of measuring tumor diameter were once 2 days, and meantime, weighed mice. The mice in experimental group were infused polypeptide through tail vein, once 3 days. The mice in the placebo group were injected saline with the same volume. Tumor volume formula: TV=0.52×a×b^2
as §2
TRTV: Treatment group RTV; CRTV: negative control group RTV

[10] = system: human thyroid cancer SW-579 xenograft tumors; assay: Tumor growth inhibition, SW-579 xenograft; details: for Rate of inhibiting tumors / Tumor weight: Once 3 day
Procedure: Picked the tumor tissue of vigorous growth and was cut into pieces of about 1.5 mm^3. Under sterile conditions, the tumor tissue was inoculated subcutaneously on the right of nude mice. Tumor diameter was measured with a vernier caliper. The animals which had tumors with a size of 100-200 mm^3 were randomly divided into groups. The effect of polypeptide on anti-tumor was dynamically observed through the method of measuring tumor diameter. The times of measuring tumor diameter were once 2 days, and meantime, weighed mice. The mice in experimental group were infused polypeptide through tail vein, once 3 days. The mice in the placebo group were injected saline with the same volume. Tumor volume formula:
as §2

[11] = system: human testicular cancer 5637 xenograft tumors; assay: Tumor growth inhibition, 5637 xenograft; details: for Rate of inhibiting tumors / Tumor weight: Once 3 days
Procedure: Human testicular cancer 5637 cell lines in logarithmic growth phase were picked, and made into 5×10^7/ml cell suspension of under sterile conditions, and then 0.1 ml suspension was inoculated subcutaneously at the right armpit of nude mice. Tumor diameter was measured with a vernier caliper. The animals which had tumors with a size of 100-200 mm^3 were randomly divided into groups. The effect of polypeptide on anti-tumor was dynamically observed through the method of measuring tumor diameter. The times of measuring tumor diameter were once 2 days, and meantime, weighed mice. The mice in experimental group were infused polypeptide through tail vein. […] After administration, all mice were sacrificed. Stripped the tumors and weighed.

[12] = system: human esophageal cancer Ec109 xenograft tumors; type: in vivo, nude mice; details: for Rate of inhibiting tumors / Tumor weight: Once 3 days
Procedure: Tumor diameter was measured with a vernier caliper. […] Tumor volume formula: […]
a, b respectively represent the length and width. […] The formula is as follows: […]
TRTV: Treatment Group RTV; CRTV: Negative Control Group RTV

[13] = high, 36.7 mg/kg, listed as polypeptide
[14] = intermediate, 18.75 mg/kg, listed as polypeptide
[15] = low, 9.38 mg/kg, listed as polypeptide

T1 sequence (P06756 31-889 limits assumed): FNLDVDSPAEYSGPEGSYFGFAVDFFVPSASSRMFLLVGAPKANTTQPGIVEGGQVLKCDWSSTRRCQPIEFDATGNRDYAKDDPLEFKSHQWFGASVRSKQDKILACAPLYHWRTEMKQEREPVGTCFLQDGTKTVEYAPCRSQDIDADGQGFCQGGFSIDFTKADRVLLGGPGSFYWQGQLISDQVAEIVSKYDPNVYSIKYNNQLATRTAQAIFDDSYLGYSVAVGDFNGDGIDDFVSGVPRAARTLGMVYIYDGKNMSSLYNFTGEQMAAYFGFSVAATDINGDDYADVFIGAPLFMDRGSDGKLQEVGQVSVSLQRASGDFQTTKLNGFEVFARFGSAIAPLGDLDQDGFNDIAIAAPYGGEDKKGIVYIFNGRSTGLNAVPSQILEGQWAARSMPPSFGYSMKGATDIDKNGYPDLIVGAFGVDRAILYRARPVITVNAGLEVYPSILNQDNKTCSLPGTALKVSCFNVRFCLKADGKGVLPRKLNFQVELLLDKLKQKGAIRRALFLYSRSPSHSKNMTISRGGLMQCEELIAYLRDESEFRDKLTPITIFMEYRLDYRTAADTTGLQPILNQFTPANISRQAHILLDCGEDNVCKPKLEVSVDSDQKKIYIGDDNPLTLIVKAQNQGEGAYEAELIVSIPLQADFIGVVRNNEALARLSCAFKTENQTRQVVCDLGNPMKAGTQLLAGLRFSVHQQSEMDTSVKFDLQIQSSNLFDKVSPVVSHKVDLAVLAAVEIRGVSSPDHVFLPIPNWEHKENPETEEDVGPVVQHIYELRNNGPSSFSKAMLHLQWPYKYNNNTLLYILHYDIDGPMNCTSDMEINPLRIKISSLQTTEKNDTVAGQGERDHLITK
T1 sequence (P06756 891-1048 partner limits assumed): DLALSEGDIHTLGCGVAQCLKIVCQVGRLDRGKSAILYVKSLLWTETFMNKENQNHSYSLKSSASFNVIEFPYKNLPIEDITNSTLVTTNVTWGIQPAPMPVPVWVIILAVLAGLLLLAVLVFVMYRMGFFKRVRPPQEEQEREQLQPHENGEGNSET
T1 sequence (P05106 27-788): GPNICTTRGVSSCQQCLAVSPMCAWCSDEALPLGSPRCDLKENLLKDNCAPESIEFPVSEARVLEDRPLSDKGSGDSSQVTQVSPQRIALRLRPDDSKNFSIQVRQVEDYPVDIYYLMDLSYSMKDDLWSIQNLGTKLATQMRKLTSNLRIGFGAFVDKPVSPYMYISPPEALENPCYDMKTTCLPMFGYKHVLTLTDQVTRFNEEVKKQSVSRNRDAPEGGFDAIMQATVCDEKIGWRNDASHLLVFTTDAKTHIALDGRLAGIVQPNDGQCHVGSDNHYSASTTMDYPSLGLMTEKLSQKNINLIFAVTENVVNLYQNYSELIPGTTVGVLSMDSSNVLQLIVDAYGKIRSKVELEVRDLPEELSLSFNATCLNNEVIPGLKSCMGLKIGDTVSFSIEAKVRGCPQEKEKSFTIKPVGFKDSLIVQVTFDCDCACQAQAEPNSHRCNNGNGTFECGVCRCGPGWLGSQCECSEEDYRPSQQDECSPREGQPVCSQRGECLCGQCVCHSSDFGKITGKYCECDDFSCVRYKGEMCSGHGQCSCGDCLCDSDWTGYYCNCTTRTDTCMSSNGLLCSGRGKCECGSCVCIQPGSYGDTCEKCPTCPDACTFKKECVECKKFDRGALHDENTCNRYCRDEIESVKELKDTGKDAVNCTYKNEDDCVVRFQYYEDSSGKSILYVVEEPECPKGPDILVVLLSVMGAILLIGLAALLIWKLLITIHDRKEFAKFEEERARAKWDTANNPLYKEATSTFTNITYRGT
T2 sequence (P08648 42-894 limits assumed): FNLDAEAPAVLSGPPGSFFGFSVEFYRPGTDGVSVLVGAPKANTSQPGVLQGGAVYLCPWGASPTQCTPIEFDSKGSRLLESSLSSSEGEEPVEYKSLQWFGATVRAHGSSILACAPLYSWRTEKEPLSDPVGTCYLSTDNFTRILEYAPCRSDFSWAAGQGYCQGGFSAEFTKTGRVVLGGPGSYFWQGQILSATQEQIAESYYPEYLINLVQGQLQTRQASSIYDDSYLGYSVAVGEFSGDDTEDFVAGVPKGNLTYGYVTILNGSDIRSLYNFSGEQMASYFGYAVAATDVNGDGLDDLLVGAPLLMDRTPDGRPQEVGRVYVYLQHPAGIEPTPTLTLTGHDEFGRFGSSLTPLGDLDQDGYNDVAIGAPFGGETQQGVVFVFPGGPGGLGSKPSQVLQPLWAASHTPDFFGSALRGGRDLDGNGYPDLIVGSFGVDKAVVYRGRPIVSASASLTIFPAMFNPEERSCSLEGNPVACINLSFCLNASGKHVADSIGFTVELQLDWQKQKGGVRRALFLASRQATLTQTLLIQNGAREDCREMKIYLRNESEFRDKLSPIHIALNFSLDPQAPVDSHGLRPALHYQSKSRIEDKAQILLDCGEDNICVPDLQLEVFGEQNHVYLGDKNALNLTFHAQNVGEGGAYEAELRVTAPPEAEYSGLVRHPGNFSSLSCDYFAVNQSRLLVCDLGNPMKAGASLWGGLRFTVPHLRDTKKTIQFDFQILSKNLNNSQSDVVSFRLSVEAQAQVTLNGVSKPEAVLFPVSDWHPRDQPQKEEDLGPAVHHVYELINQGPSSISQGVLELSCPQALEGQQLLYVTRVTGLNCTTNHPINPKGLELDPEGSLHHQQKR
T2 sequence (P08648 895-1049 partner limits assumed): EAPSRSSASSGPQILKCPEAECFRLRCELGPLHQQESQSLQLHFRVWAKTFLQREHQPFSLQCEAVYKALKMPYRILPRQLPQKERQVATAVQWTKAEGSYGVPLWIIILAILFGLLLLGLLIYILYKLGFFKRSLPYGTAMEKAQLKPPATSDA
T2 sequence (P05556 21-798): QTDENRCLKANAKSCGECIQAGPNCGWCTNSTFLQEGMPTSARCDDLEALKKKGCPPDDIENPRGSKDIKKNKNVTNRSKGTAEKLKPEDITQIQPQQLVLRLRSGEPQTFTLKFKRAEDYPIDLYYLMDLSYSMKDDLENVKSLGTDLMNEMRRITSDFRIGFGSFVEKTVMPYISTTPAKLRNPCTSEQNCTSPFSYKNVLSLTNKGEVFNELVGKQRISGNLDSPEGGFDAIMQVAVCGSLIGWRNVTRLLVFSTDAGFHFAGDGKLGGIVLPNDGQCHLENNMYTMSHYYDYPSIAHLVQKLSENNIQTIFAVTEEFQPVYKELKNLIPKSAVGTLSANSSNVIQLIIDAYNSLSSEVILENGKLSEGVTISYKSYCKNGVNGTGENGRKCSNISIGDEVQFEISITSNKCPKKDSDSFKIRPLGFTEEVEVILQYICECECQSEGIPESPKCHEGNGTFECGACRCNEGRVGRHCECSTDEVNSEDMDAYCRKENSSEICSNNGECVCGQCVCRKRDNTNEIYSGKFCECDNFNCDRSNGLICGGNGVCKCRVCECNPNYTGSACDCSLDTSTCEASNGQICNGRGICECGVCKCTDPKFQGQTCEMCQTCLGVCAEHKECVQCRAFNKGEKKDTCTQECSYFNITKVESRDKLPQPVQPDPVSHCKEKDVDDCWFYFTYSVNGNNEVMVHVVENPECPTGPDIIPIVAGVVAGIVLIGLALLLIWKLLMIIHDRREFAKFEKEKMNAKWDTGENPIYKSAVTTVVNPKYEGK

mPEG-SC20k-Ile-Val-Arg-Arg-Ala-Asp-Arg-Ala-Ala-Val-Pro-Gly-Gly-Gly-Gly-Arg-Gly-Asp ({mPEG‑SC20k}-IVRRADRAAVPGGGGRGD) [mPEG-SC20k-HM-3]
binding to integrin ανβ3 [1]: able to bind | binding to integrin α5β1 [2]: able to bind | inhibition of tumor growth compared with negative control ([3]; 36.7 mg/kg, P<0.05): significant inhibition role | Rate of inhibiting tumors ([3]; high, 36.7 mg/kg): 77.46%* | Tumor weight ([3]; high, 36.7 mg/kg): 0.417 g | Rate of inhibiting tumors [3, 13]: 77.46% | Rate of inhibiting tumors ([3]; intermediate, 18.75 mg/kg): 67.48% | Tumor weight ([3]; intermediate, 18.75 mg/kg): 0.603 g | Rate of inhibiting tumors [3, 14]: 67.48% | Rate of inhibiting tumors ([3]; low, 9.38 mg/kg): 57.87% | Tumor weight ([3]; low, 9.38 mg/kg): 0.781 g | Rate of inhibiting tumors [3, 15]: 57.87% | inhibition of tumor growth compared with negative control ([4]; 36.7 mg/kg, P<0.05): significant inhibition role | Rate of inhibiting tumors ([4]; high, 36.7 mg/kg): 55.11%* | Tumor weight ([4]; high, 36.7 mg/kg): 0.424 g | Rate of inhibiting tumors [4, 13]: 55.11% | Rate of inhibiting tumors ([4]; intermediate, 18.75 mg/kg): 46.95% | Tumor weight ([4]; intermediate, 18.75 mg/kg): 0.501 g | Rate of inhibiting tumors [4, 14]: 46.95% | Rate of inhibiting tumors ([4]; low, 9.38 mg/kg): 39.00% | Tumor weight ([4]; low, 9.38 mg/kg): 0.576 g | Rate of inhibiting tumors [4, 15]: 39.00% | inhibition of tumor growth compared with negative control ([5]; 36.7 mg/kg, P<0.05): significant inhibition role | Rate of inhibiting tumors ([5]; high, 36.7 mg/kg): 82.07%* | Tumor weight ([5]; high, 36.7 mg/kg): 0.222 g | Rate of inhibiting tumors [5, 13]: 82.07% | Rate of inhibiting tumors ([5]; intermediate, 18.75 mg/kg): 74.11% | Tumor weight ([5]; intermediate, 18.75 mg/kg): 0.320 g | Rate of inhibiting tumors [5, 14]: 74.11% | Rate of inhibiting tumors ([5]; low, 9.38 mg/kg): 63.32% | Tumor weight ([5]; low, 9.38 mg/kg): 0.453 g | Rate of inhibiting tumors [5, 15]: 63.32% | inhibition of tumor growth compared with negative control ([6]; 36.7 mg/kg, P<0.05): significant inhibition role | Rate of inhibiting tumors ([6]; high, 36.7 mg/kg): 67.76%* | Tumor weight ([6]; high, 36.7 mg/kg): 0.446 g | Rate of inhibiting tumors [6, 13]: 67.76% | Rate of inhibiting tumors ([6]; intermediate, 18.75 mg/kg): 64.55% | Tumor weight ([6]; intermediate, 18.75 mg/kg): 0.491 g | Rate of inhibiting tumors [6, 14]: 64.55% | Rate of inhibiting tumors ([6]; low, 9.38 mg/kg): 50.40% | Tumor weight ([6]; low, 9.38 mg/kg): 0.687 g | Rate of inhibiting tumors [6, 15]: 50.40% | inhibition of tumor growth compared with negative control ([7]; 36.7 mg/kg, P<0.05): significant inhibition role | Rate of inhibiting tumors ([7]; high, 36.7 mg/kg): 50.40%* | Tumor weight ([7]; high, 36.7 mg/kg): 0.627 g | Rate of inhibiting tumors [7, 13]: 50.40% | Rate of inhibiting tumors ([7]; intermediate, 18.75 mg/kg): 44.62% | Tumor weight ([7]; intermediate, 18.75 mg/kg): 0.700 g | Rate of inhibiting tumors [7, 14]: 44.62% | Rate of inhibiting tumors ([7]; low, 9.38 mg/kg): 42.33% | Tumor weight ([7]; low, 9.38 mg/kg): 0.730 g | Rate of inhibiting tumors [7, 15]: 42.33% | inhibition of tumor growth compared with negative control ([8]; 36.7 mg/kg, P<0.05): significant inhibition role | Rate of inhibiting tumors ([8]; high, 36.7 mg/kg): 63.42%* | Tumor weight ([8]; high, 36.7 mg/kg): 0.372 g | Rate of inhibiting tumors [8, 13]: 63.42% | Rate of inhibiting tumors ([8]; intermediate, 18.75 mg/kg): 54.24% | Tumor weight ([8]; intermediate, 18.75 mg/kg): 0.466 g | Rate of inhibiting tumors [8, 14]: 54.24% | Rate of inhibiting tumors ([8]; low, 9.38 mg/kg): 46.39% | Tumor weight ([8]; low, 9.38 mg/kg): 0.546 g | Rate of inhibiting tumors [8, 15]: 46.39% | inhibition of tumor growth compared with negative control ([9]; 36.7 mg/kg, P<0.05): significant inhibition role | Rate of inhibiting tumors ([9]; high, 36.7 mg/kg): 63.05%* | Tumor weight ([9]; high, 36.7 mg/kg): 0.459 g | Rate of inhibiting tumors [9, 13]: 63.05% | Rate of inhibiting tumors ([9]; intermediate, 18.75 mg/kg): 59.11% | Tumor weight ([9]; intermediate, 18.75 mg/kg): 0.508 g | Rate of inhibiting tumors [9, 14]: 59.11% | Rate of inhibiting tumors ([9]; low, 9.38 mg/kg): 51.01% | Tumor weight ([9]; low, 9.38 mg/kg): 0.609 g | Rate of inhibiting tumors [9, 15]: 51.01% | inhibition of tumor growth compared with negative control ([10]; 36.7 mg/kg, P<0.05): significant inhibition role | toxic and side effects ([10]; 36.7 mg/kg, compared with positive 5-Fu group): no obvious toxic and side effects | Rate of inhibiting tumors ([10]; high, 36.7 mg/kg): 67.63%* | Tumor weight ([10]; high, 36.7 mg/kg): 0.406 g | Rate of inhibiting tumors [10, 13]: 67.63% | Rate of inhibiting tumors ([10]; intermediate, 18.75 mg/kg): 60.56% | Tumor weight ([10]; intermediate, 18.75 mg/kg): 0.494 g | Rate of inhibiting tumors [10, 14]: 60.56% | Rate of inhibiting tumors ([10]; low, 9.38 mg/kg): 58.42% | Tumor weight ([10]; low, 9.38 mg/kg): 0.521 g | Rate of inhibiting tumors [10, 15]: 58.42% | inhibition of tumor growth compared with negative control ([11]; 36.7 mg/kg, P<0.05): significant inhibition role | Rate of inhibiting tumors ([11]; high, 36.7 mg/kg): 60.20%* | Tumor weight ([11]; high, 36.7 mg/kg): 0.802 g | Rate of inhibiting tumors [11, 13]: 60.20% | Rate of inhibiting tumors ([11]; intermediate, 18.75 mg/kg): 51.32% | Tumor weight ([11]; intermediate, 18.75 mg/kg): 0.981 g | Rate of inhibiting tumors [11, 14]: 51.32% | Rate of inhibiting tumors ([11]; low, 9.38 mg/kg): 50.99% | Tumor weight ([11]; low, 9.38 mg/kg): 0.988 g | Rate of inhibiting tumors [11, 15]: 50.99% | inhibition of tumor growth compared with negative control ([12]; 36.7 mg/kg, P<0.05): significant inhibition role | Rate of inhibiting tumors ([12]; high, 36.7 mg/kg): 62.24%* | Tumor weight ([12]; high, 36.7 mg/kg): 0.183 g | Rate of inhibiting tumors [12, 13]: 62.24% | Rate of inhibiting tumors ([12]; intermediate, 18.75 mg/kg): 55.66% | Tumor weight ([12]; intermediate, 18.75 mg/kg): 0.318 g | Rate of inhibiting tumors [12, 14]: 55.66% | Rate of inhibiting tumors ([12]; low, 9.38 mg/kg): 50.16% | Tumor weight ([12]; low, 9.38 mg/kg): 0.406 g | Rate of inhibiting tumors [12, 15]: 50.16%
